The experiment relates to MDA-MB-468 breast. The experiment in a line: DTP human tumour cell line panel, 48 h.

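Each compound was tested at five concentrations against cells in 96-well plates for 48 hours. GI50 marks 50% less growth. Definition used: TGI = concentration required for complete inhibition of growth.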

The term GI50 denotes the concentration giving 50% growth inhibition. As a reminder, the TGI is the concentration giving total growth inhibition. Low values mean greater sensitivity of the cells, high ones lower sensitivity of the cells.

`COc1ccc(S(=O)(=O)Nc2c(/C=C\c3cc(OC)c(OC)c(OC)c3)ccc(OC)c2O)cc1OC`: the concentration for 50% growth inhibition (GI50) is 75.5 nM and the TGI stood at 441 nM. On the same counts, the results for `C=C(C=O)[C@@H]1CC=C(C=O)CC1` are 2800 nM and greater than 100000 nM. On to `COc1ccc(/C=N/C2=C(C#N)C(c3ccccc3)c3ccc4ccccc4c3O2)cc1` (stereo unspecified), for which the GI50 was 454 nM. Still for that read-out and setting: to `O=C1/C=C/[C@@H](O)[C@@H]2C[C@@H](O)C[C@H]2/C=C/CCCCO1` belongs 167 nM. For `Cn1cc(C2=C(c3cn(CCCN/C(N)=N\[N+](=O)[O-])c4ccccc34)C(=O)NC2=O)c2ccccc21`, the GI50 was 2090 nM and the TGI came out at 9740 nM. On the same counts, the results for `N=C(N)c1ccc(-c2ccc(-c3ccccc3)o2)o1` are 1640 nM and 4190 nM.

For `COc1cc(-c2cc(C(=O)N3CCN(C(=O)c4ccccc4NCc4cccs4)CC3)nc3cc(-c4ccccc4)nn23)cc(OC)c1OC`, the GI50 was 2710 nM and the total growth inhibition concentration (TGI) worked out at 14000 nM. Consider `c1ccc(Oc2cnc3ccccc3n2)cc1`, for which the GI50 was 46400 nM and the TGI was greater than 100000 nM.

With `CC/C(=C(/c1ccc(Cl)cc1)c1ccc(OCCCN(C)C)cc1)c1ccc(OC)cc1`, the GI50 is 1060 nM and the TGI is 2260 nM. For the molecule `COc1ccc(-c2nn(C(=O)c3cc(OC)c(OC)c(OC)c3)c3cc(N)ccc23)cc1`, the 50% growth inhibitory concentration (GI50) is less than 14.1 nM and the TGI was 190 nM.

In the case of `COc1cc(Nc2nccc(-c3cnn4ncccc34)n2)cc(OC)c1`, the GI50 is 64.3 nM and the TGI was 217 nM.

For `Nc1c(S(=O)(=O)O)cc2c(c1Cl)C(=O)c1ccccc1C2=O`, the GI50 is greater than 100000 nM and the TGI is greater than 100000 nM.

For `O=C(/C=C/c1ccco1)c1cccc(Nc2nc(Nc3ccccc3)nc(Nc3ccccc3)n2)c1`, the GI50 is 2800 nM and the TGI amounted to 28900 nM. The like results for `Clc1ccc2c(NCCCNCc3ccc4c(c3)OCO4)ccnc2c1` were, in that order, 2040 nM and 5130 nM.

For `COc1cccc(-c2nn(C)c3sc(C(=O)NCCN4CCN(c5ccccc5F)CC4)cc23)c1`, the GI50 was 7810 nM and the TGI is greater than 100000 nM. The like results for `Nc1nc(-c2ccccc2Cl)cc(-c2ccc(Cl)cc2Cl)n1` were, in that order, 2180 nM and 8660 nM. The like results for `OC(c1cc2c(Cl)cc(Cl)cc2c2cc(C(F)(F)F)ccc12)C1CCCCN1` (stereo unspecified) were, in that order, 1710 nM and 3220 nM.

On to `COC(=O)/C=C/c1cc(OC)c2c(c1)[C@@H](C(=O)OC)[C@H](c1ccc(OC)c(OC)c1)O2`, for which the GI50 is 1710 nM and the TGI is greater than 100000 nM.

Regarding `CCCCCCOc1ccc(/C=N/Nc2cc(C)nc3ccc(Br)cc23)cc1`, the GI50 is 1700 nM and the TGI turned out to be 3220 nM. The like results for `COc1ccc2c(c1)cn1c3ccc(OC)cc3[nH]c(=O)c21` were, in that order, 63.5 nM and 1040 nM. On the same counts, the results for `CCOc1ccc(-n2cc(-c3ccc(N(C)C)cc3)[n+]3c2CCCCC3)cc1` are 42 nM and 2340 nM.

Turning to `N[C@@H](Cc1ccc(N(CCCl)CCCl)cc1)C(=O)O`, the GI50 was 3840 nM and the total growth inhibition concentration (TGI) came out at 23700 nM. The like results for `C=CCOc1ccc2c(c1)CC[C@@H]1[C@@H]2CC[C@]2(C)C(=O)/C(=N/O)C[C@@H]12` were, in that order, 2180 nM and 10600 nM. The like results for `Cc1nc(N(C)C)nc(-c2cccc(-c3ccn(CCN(C)C)n3)c2)c1C` were, in that order, 12100 nM and greater than 20000 nM. On the same counts, the results for `Nc1ncnc2c1c(-c1ccc(Oc3ccccc3)cc1)nn2C[C@H]1SSC[C@H]1O` are 211 nM and 627 nM. Turning to `COc1cc(-c2nc3cc(Cl)c(Cl)cc3[nH]2)ccc1OCC(=O)N=Nc1c(O)[nH]c2ccccc12`, the GI50 was 250 nM and the TGI amounted to 685 nM.

Regarding `COc1cc(/C=C2\CCCC3=C2N=C2SC=NN2C3c2cc(OC)c(OC)c(OC)c2)cc(OC)c1OC` (stereo unspecified), the GI50 was 2330 nM and the concentration for total growth inhibition (TGI) stood at 7520 nM. As to `NC(CSC(c1ccccc1)(c1ccccc1)c1ccc(Br)cc1)C(=O)O` (stereo unspecified), the GI50 was 116 nM and the concentration for total growth inhibition (TGI) was greater than 31600 nM. The like results for `CCOc1ccc(NC2=C(Cl)C(=O)c3nc(C)ccc3C2=O)cc1` were, in that order, 1490 nM and 2920 nM. For the molecule `CCOC(=O)C1=CN(Cc2ccccc2)C2ON=C(c3ccc(Cl)cc3)C2C1` (stereo unspecified), the GI50 is 15500 nM and the total growth inhibition concentration (TGI) was greater than 100000 nM. On the same counts, the results for `O=C1COCCN1c1ccc(NCc2cn(Cc3ccc(F)cc3)c3ccccc23)cc1` are 23.9 nM and 78.3 nM. Turning to `Nc1c(C(=O)Nc2cccc3ccccc23)sc2nc3c(cc12)CCCCCC3`, the GI50 was 675 nM and the TGI worked out at 11600 nM. The like results for `CCc1cc(Cc2cc(CC)cc(C(C)(C)C)c2O)c(O)c(C(C)(C)C)c1` were, in that order, 3540 nM and 13200 nM. On the same counts, the results for `O=c1c(Br)ccc(Br)cc1Br` are 830 nM and 2620 nM. On the same counts, the results for `COc1cc(Cl)c(C)cc1NC(=O)c1cc2ccccc2cc1O` are 2760 nM and 9740 nM.

`O=C(Nc1ccc(-n2cc(-c3ccncc3)c(-c3ccc(Cl)c(O)c3)n2)cc1)c1ccc(Cl)c(C(F)(F)F)c1`: the GI50 was 1840 nM and the TGI was 5680 nM. Turning to `O=c1c(-c2nc3ccccc3[nH]2)cc2ccccc2n1Cc1cn(Cc2ccc(F)cc2)nn1`, the GI50 is 93.1 nM and the TGI is 2780 nM. On the same counts, the results for `CCCCCCCCCCCC(=O)[O][Sn]([CH2]CCC)([CH2]CCC)[CH2]CCC` are 28 nM and 78.7 nM. On the same counts, the results for `CN(Cc1cccc(Cl)c1)c1ccc(CO)c(Cl)c1` are 57 nM and 217 nM.

Source of the values: PubChem BioAssay (NCI).
